For 84 compounds, melting point results are on record in a melting point compilation (Tetko et al.; mined from patent text by program, amines drawn as free bases though some values may be those of a salt).

Molecules are shown by their SMILES. Where only a bound is given, the exact number is not on record here.

A word on the melting point: it is the temperature, or range, at which the solid turns liquid.

With `O=C1c2ccccc2C(O)N1CCO[N+](=O)[O-]` (centres undefined), the melting point was in the range of 143 to 145 °C.

`CC1Cc2cccc(-c3ccccc3)c2C(=O)O1` (centres undefined) gave a melting point of 140 to 142 °C.

Turning to `CCn1c(NC)n[nH]c1=O`, the melting point lay within 208 to 210 °C.

Turning to `Cc1ccc(S(=O)(=O)OCC2Cc3cccc(Nc4ccc(Cl)cc4)c3O2)cc1` (centres undefined), the melting point is 132 to 134 °C.

Turning to `COc1ccc(-c2c(Cl)c(CN3C(=O)CCC3=O)nc3sc4c(c23)CC/C(=N/O)C4)cc1`, the melting point lay within 248 to 249 °C.

Regarding `Fc1cccc(CSc2nnc(-c3ccc4c(c3)CCO4)o2)c1`, the melting point was 128 to 129 °C.

Compound `CCCC(NOCC)=C1C(=O)CC(c2cc3ccccc3s2)CC1=O` (centres undefined) had a melting point of 73 to 76 °C.

Regarding `CC(=O)NS(=O)(=O)c1ccc(-n2cc(C)cc2-c2ccc(C)c(C)c2)cc1`, the melting point was in the range of 192 to 193 °C.

Compound `Clc1ccc2[nH]cc(C3CCNCC3)c2c1` returned a melting point of 156 to 158 °C.

`CS(=O)(=O)CCCn1c(=N)sc2cc(OC(F)(F)F)ccc21` registered a melting point of 180 °C.

The compound `O=C1CCN(C(=O)c2ccc(Cl)cc2Cl)c2cc(Cl)ccc21` showed a melting point of 159 to 163 °C.

`Cc1cc(-c2cscn2)ccc1-c1cc(C(F)(F)F)nn1-c1ccc(S(C)(=O)=O)c(F)c1` had a melting point of 132 °C.

The compound `CC1C(=O)N(CC(=O)CCc2ccccc2)C1S(=O)Cc1ccccc1` (centres undefined) came in with a melting point of 87 to 94 °C.

The compound `Cc1cc2c(-c3ccccc3)nc(N3CCN(CC(O)c4ccc(F)cc4)CC3)nc2s1` (centres undefined) displayed a melting point of 180 to 182 °C.

As to `COc1ccc(SC2(Sc3ccc(OC)cc3)CCC3C4CCC5=CC(=O)C=CC5(C)C4(F)C(O)CC32C)cc1` (centres undefined), the melting point fell in the range of 209 to 211 °C.

Turning to `Fc1ccc(N2CCC(N3CCN(c4cccc5cccnc45)CC3)CC2)c2ncccc12`, the melting point worked out at 224 °C.

`O=C(CCc1conc1-c1ccc(Cl)cc1)NCc1cccc(C(F)(F)F)c1`: the melting point was in the range of 80 to 81 °C.

`COC1OC(=O)c2c(O)cccc21` (centres undefined) yielded a melting point of 77 to 79 °C.

Regarding `Nc1ccccc1C(=O)NCCCCn1ccnc1`, the melting point fell in the range of 91 to 93 °C.

Compound `C=CCOc1nc(N)c2ccccc2n1` showed a melting point of 105 to 110 °C.

For `CC(C)N=C(N)Nc1ccnc(OCCCO)n1`, the melting point fell in the range of 181 to 183 °C.

Consider `Oc1ccc(-c2cccnc2)cc1`, for which the melting point was 195 °C.

For the compound `CC(C)NC(=O)c1c(NC(=O)c2cc(C(F)(F)F)nn2-c2ncccc2Cl)c(C#N)cc2cn[nH]c12`, the melting point was 226 to 229 °C.

Compound `CCC(C(=O)N(C)C)n1cc(C)c(-c2ccccc2)n1` (centres undefined) showed a melting point of 86 to 88 °C.

`OC(CSc1ncnc2c1cnn2CC1CO1)CN1CCN(C(c2ccccc2)c2ccccc2)CC1` (centres undefined) gave a melting point of 87 to 92 °C.

For `N#Cc1cccc(-c2nc(-c3ccccn3)no2)c1`, the melting point lay within 148 to 149 °C.

`CC(O)Cn1cncn1` (centres undefined) displayed a melting point of 110 to 112 °C.

For `c1cnc(C2CNCC(c3ncccn3)N2)nc1` (centres undefined), the melting point was in the range of 159 to 161 °C.

With `Nc1cc(F)c(-n2ccc(=O)cc2)cc1N`, the melting point is 227 to 230 °C.

For the compound `CCCCCc1cc(C(=O)O)c(C)o1`, the melting point lay within 47 to 48 °C.

Turning to `Nc1nc(-c2ccc(CNC(=O)c3cccnc3)s2)cs1`, the melting point was in the range of 240 to 241 °C.

For `COC(=O)c1ccc(C)c(NC(=O)c2cccc([N+](=O)[O-])c2)c1`, the melting point lay within 208 to 209 °C.

`CCCCN1C(=O)c2cccc3c(SC)ccc1c23` had a melting point of 75 to 77 °C.

Compound `CC1OC1C1CC(O)C2(C)CCC3C(CCC4CC(OC5CCCCO5)CC(C)C43C)C12` (centres undefined) showed a melting point of 172 to 174 °C.

As to `CC1CCC(NC(=O)NS(=O)(=O)c2ccc(CCNC(=O)N3CCC(C)CC3=O)cc2)CC1` (centres undefined), the melting point lay within 190 to 191 °C.

Take `Cc1c2c(nc3ccccc13)CCN(C(=O)Oc1ccccc1)CC2`: the melting point turned out to be 150 °C.

In turn, `COc1ccc2c(c1)CC(CCCNCCCSc1nnc(-c3ccccc3)n1C)CC2` (centres undefined) displayed a melting point of 92 to 95 °C.

On to `Fc1cccc(COc2ccc(Nc3ncnc4sc(C#Cc5ncccn5)cc34)cc2Cl)c1`, for which the melting point amounted to 225 °C.

In the case of `CC(O)C(NC(=O)OCc1ccccc1)C(=O)NN` (centres undefined), the melting point was 135 °C.

For the compound `Cn1c2c(c(=O)[nH]c1=O)CCC2`, the melting point was in the range of 250 to 251 °C.

For `N#Cc1cccc(C(=O)Nc2ccccc2N)c1`, the melting point fell in the range of 197 to 200 °C.

The compound `O=C(O)c1ccc(OCC2CN(c3ccc([N+](=O)[O-])cc3)C(=O)O2)cc1` (centres undefined) gave a melting point of 236 to 238 °C.

On to `COc1cccc(Nc2nnc(Cc3ccncc3)c3ccccc23)c1`, for which the melting point was in the range of 118 to 120 °C.

`O=C(NC1CCN(CCCOc2ccc3c4c(c(=O)oc3c2)CCC4)CC1)c1cccnc1` returned a melting point of 199 to 200 °C.

`Cc1ccc(S(=O)(=O)OCC2Cc3c(Cl)cc4c(c3O2)CCC4)cc1` (centres undefined) had a melting point of 95 to 97 °C.

`C=CC(=O)OCC1(COC(=O)C=C)c2ccccc2-c2ccccc21` displayed a melting point of 73 to 75 °C.

On to `CCn1ncnc1COc1nn2c(-c3ccccc3F)nncc2c1-c1ccccc1`, for which the melting point fell in the range of 171 to 173 °C.

As to `O=C(NC(=NCCCCc1cccnc1)NCCCc1c[nH]cn1)c1ccccc1`, the melting point was 119 to 120 °C.

Take `CC(=O)N[C@H](Cc1ccc(C#N)cc1)C(=O)O`: the melting point lay in the range of 173 to 175 °C.

The compound `COc1cc2c(cc1OC)-c1c(-c3nc(C)no3)c(-c3cc(C)c(O)c(C)c3)c(C)n1CC2` displayed a melting point of 218 to 221 °C.

Turning to `Cc1cc(-c2ccc(C(=O)O)cc2)ccn1`, the melting point was in the range of 293 to 294 °C.

Compound `Cc1cc(C2=NN=C(C(=O)O)Cc3cc4c(cc32)OCO4)ccc1[N+](=O)[O-]` gave a melting point of 185 to 186 °C.

`O=C(Nc1ccc2cc(CN3CCCCC3)ccc2c1)c1ccc(-c2ccc(Cl)cc2)nc1`: the melting point was 228 to 229 °C.

`CCCCCCCCCCCCCCc1ccc(C(=O)OCC)[nH]1`: the melting point was in the range of 60 to 63 °C.

Turning to `Cc1ccc(NC(=O)N2CCc3cc(S(=O)(=O)N4CC(c5ccccc5)NC4=O)ccc32)cc1` (centres undefined), the melting point fell in the range of 223 to 224 °C.

`COC(=O)CC1c2cc(N(C)C)ccc2N(C(C)=O)C1C` (centres undefined) registered a melting point of 122 °C.

In turn, `Nc1nc2cc(Cl)c(Cl)cc2n1Cc1ccccc1` returned a melting point of 245 to 246 °C.

With `C=CCOc1cc(NC(=O)OC(C)(C)C)c([N+](=O)[O-])cc1I`, the melting point is 93 to 95 °C.

In turn, `CCOC(=O)c1nc(NC(C)=O)sc1Cc1ccccc1` showed a melting point of 178 to 180 °C.

`CSCC[C@H](N)C(=O)NC(=O)C(CSC(C)=O)Cc1ccccc1` (some centres undefined) returned a melting point of 119 to 121 °C.

With `Cc1ccc(S(=O)(=O)NC(=O)c2nc(Cl)c(Cl)[nH]2)cc1`, the melting point stood at 238 °C.

In turn, `O=C(NC1CCC(CCN2CCN(c3nccc4c3OCC4)CC2)CC1)C1CCCO1` (racemic) had a melting point of 145 °C.

Turning to `CCCCC[C@H](CC(=O)OC(C)(C)C)C(=O)N1C(=O)OC[C@@H]1C(C)C`, the melting point was in the range of 51 to 53 °C.

As for `O=C(CO)Nc1nc(CN2CCC(c3c[nH]c4ccccc34)CC2)cs1`, the melting point lay within 185 to 188 °C.

On to `Cc1cccc(NC(=O)NCC(=O)N(CC(=O)N(C)c2ccccc2)c2ccccc2Cl)c1`, for which the melting point came out at 180 °C.

On to `CC(C)(C)OC(=O)NCCCSc1ccncc1`, for which the melting point was 72 to 74 °C.

Take `Clc1cc(Cl)n2ncc(Br)c2n1`: the melting point lay within 73 to 75 °C.

`CC1=C(C(=O)N[C@H](C)c2ccccc2)[C@H](c2ccc(F)cc2Cl)N=C(c2nccs2)N1` had a melting point of 224 to 226 °C.

`CCN(CC)C(=O)C(C)(C)n1cc(C)c(-c2ccccc2Cl)n1`: the melting point is 73 to 76 °C.

In turn, `NC(=O)c1ccc(-c2cc3cc(C4=NNC(=O)CC4)ccc3[nH]2)cc1` returned a melting point greater than 300 °C.

Consider `Nc1nc2c(sc(=O)n2COCCO)c(=O)[nH]1`, for which the melting point is 230 to 232 °C.

`CCC1(CC)c2cc(-c3cc4ccccc4[nH]3)ccc2-c2ccc(N(c3ccccc3)c3ccccc3)cc21` came in with a melting point of 102 to 104 °C.

In the case of `CC1=C(C(=O)c2ccc3c(c2)CN(C(N)=O)CC3)C(C)(C)CCC1`, the melting point was 92.5 to 93.6 °C.

As for `COC(=O)c1ccc(-c2ccccc2)cc1S(=O)(=O)NC(=O)Nc1nc(C)nc(OC)n1`, the melting point was 198 to 200 °C.

Compound `O=S(=O)(/C=C/c1ccc(I)cc1)CS(=O)(=O)/C=C/c1ccc(I)cc1` returned a melting point of 253 to 255 °C.

Turning to `COc1cc(CC2SC(=O)NC2=O)ccc1OCCN1c2ccccc2Sc2ccccc21` (centres undefined), the melting point was 46 to 48 °C.

In turn, `COc1cc2cc3[nH]cc(C#N)c(=O)c3cc2cc1OC` came in with a melting point greater than 265 °C.

For `CCCc1nc(OC)c(NC(=S)N2CCN(c3cccc(O)c3)CC2)cc1C`, the melting point was 160 to 162 °C.

Consider `N#Cc1[nH]c2ccc(C(=O)O)cc2c1-c1ccccc1`, for which the melting point lay in the range of 302 to 304 °C.

`COC(=O)c1ccc2c(C(C(=O)O)c3ccc4c(c3)OCO4)cn(C)c2c1` (centres undefined) registered a melting point of 194 to 198 °C.

In turn, `OC1CSC(Oc2cncc(-c3cc4ccccc4s3)c2)C(O)C1O` (centres undefined) had a melting point of 235 °C.

Compound `O=C(O)CCCc1cc2nc(C(F)(F)F)ccc2n1S(=O)(=O)c1ccc2c(c1)OCO2` had a melting point of 161 °C.

Compound `CC(C)CCCOc1ccc2[nH]ncc2c1` showed a melting point of 124 to 126 °C.

Compound `O=C1N(Cc2ccccn2)c2ccccc2C12COc1ccc3c(c12)OCCO3` (centres undefined) showed a melting point of 132 to 134 °C.
